Measurements from PubChem BioAssay AID328 (DTP/NCI, 2004).
Toxic doses and inconclusive results are not listed.

Test system: BDF1 mice, P388 leukemia ip, median survival T/C
Assay: NCI In Vivo Anticancer Drug Screen. Data for tumor model P388 Leukemia (intraperitoneal) in B6D2F1 (BDF1) mice
Details: endpoint: median survival time, higher = longer survival
Summary of the method: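 Steps: implant the tumour, treat one group with compound and another with vehicle, record survival, then divide treated by control.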

[1] = dose: 25.0 mg/kg/injection, schedule: Q01DX009 (ip), vehicle: saline with Tween-80
[2] = dose: 50.0 mg/kg/injection, schedule: Q01DX009 (ip), vehicle: saline with Tween-80
[3] = dose: 50.0 mg/kg/injection, schedule: Q01DX009 (ip), vehicle: other
[4] = dose: 200.0 mg/kg/injection, schedule: Q01DX009 (ip), vehicle: other
[5] = dose: 100.0 mg/kg/injection, schedule: Q04DX003 (ip), vehicle: Klucel (hydroxypropylcellulose) (HPC)
[6] = dose: 200.0 mg/kg/injection, schedule: Q04DX003 (ip), vehicle: Klucel (hydroxypropylcellulose) (HPC)
[7] = dose: 400.0 mg/kg/injection, schedule: Q04DX003 (ip), vehicle: Klucel (hydroxypropylcellulose) (HPC)
[8] = dose: 100.0 mg/kg/injection, schedule: Q01DX009 (ip), vehicle: Klucel (hydroxypropylcellulose) (HPC)
[9] = dose: 100.0 mg/kg/injection, schedule: Q04DX002 (ip), vehicle: saline with Tween-80
[10] = dose: 200.0 mg/kg/injection, schedule: Q04DX002 (ip), vehicle: saline with Tween-80
[11] = dose: 100.0 mg/kg/injection, schedule: Q01DX009 (ip), vehicle: saline with Tween-80
[12] = dose: 100.0 mg/kg/injection, schedule: Q04DX003 (ip), vehicle: saline with Tween-80
[13] = dose: 200.0 mg/kg/injection, schedule: Q01DX009 (ip), vehicle: saline with Tween-80
[14] = dose: 400.0 mg/kg/injection, schedule: Q01DX009 (ip), vehicle: saline with Tween-80
[15] = dose: 25.0 mg/kg/injection, schedule: Q04DX003 (ip), vehicle: saline with Tween-80
[16] = dose: 50.0 mg/kg/injection, schedule: Q04DX003 (ip), vehicle: saline with Tween-80

CC(=O)C1=CC2(OC3CCC(O)(C(=O)CO)C(C)O3)C(=O)c3c(cc4cccc(O)c4c3O)CC2C(O)C1O (centres undefined)
T/C (dose: 19.0 mg/kg/injection, schedule: Q01DX010 (ip), vehicle: carboxymethylcellulose (CMC)): 100 % of control | T/C (dose: 38.0 mg/kg/injection, schedule: Q01DX010 (ip), vehicle: carboxymethylcellulose (CMC)): 100 % of control | T/C (dose: 75.0 mg/kg/injection, schedule: Q01DX010 (ip), vehicle: carboxymethylcellulose (CMC)): 104 % of control | T/C (dose: 150.0 mg/kg/injection, schedule: Q01DX010 (ip), vehicle: carboxymethylcellulose (CMC)): 104 % of control

O=C1c2ccccc2C(=O)c2c(O)c3c(c(O)c21)CC=CC3
T/C (dose: 3.12 mg/kg/injection, schedule: Q01DX009 (ip), vehicle: saline with Tween-80): 107 % of control | T/C (dose: 6.25 mg/kg/injection, schedule: Q01DX009 (ip), vehicle: saline with Tween-80): 112 % of control | T/C (dose: 12.5 mg/kg/injection, schedule: Q01DX009 (ip), vehicle: saline with Tween-80): 104 % of control | T/C [1]: 98 % of control | T/C [2]: 98 % of control

O=S(/C=C/c1ccccc1)c1ccccc1 (centres undefined)
T/C [3]: 104 % of control | T/C (dose: 100.0 mg/kg/injection, schedule: Q01DX009 (ip), vehicle: other): 100 % of control | T/C [4]: 104 % of control

C[n+]1ccccc1/C=C/c1cccc([N+](=O)[O-])c1
T/C (dose: 5.0 mg/kg/injection, schedule: Q04DX003 (ip), vehicle: saline with Tween-80): 95 % of control | T/C (dose: 10.0 mg/kg/injection, schedule: Q04DX003 (ip), vehicle: saline with Tween-80): 104 % of control | T/C (dose: 20.0 mg/kg/injection, schedule: Q04DX003 (ip), vehicle: saline with Tween-80): 109 % of control

Cc1cc2c(cc1C)NC(=O)CC(=O)N2
T/C [5]: 100 % of control | T/C [6]: 86 % of control | T/C [7]: 86 % of control

COc1ccccc1Oc1ccc(N=Cc2ccc(C)cc2)cc1
T/C (dose: 12.0 mg/kg/injection, schedule: Q01DX001 (ip), vehicle: Klucel (hydroxypropylcellulose) (HPC)): 100 % of control | T/C (dose: 25.0 mg/kg/injection, schedule: Q01DX001 (ip), vehicle: Klucel (hydroxypropylcellulose) (HPC)): 104 % of control | T/C (dose: 50.0 mg/kg/injection, schedule: Q01DX001 (ip), vehicle: Klucel (hydroxypropylcellulose) (HPC)): 95 % of control | T/C (dose: 100.0 mg/kg/injection, schedule: Q01DX001 (ip), vehicle: Klucel (hydroxypropylcellulose) (HPC)): 100 % of control

O=C(NC(CO)Cc1ccccc1)c1ccccc1 (centres undefined)
T/C (dose: 9.0 mg/kg/injection, schedule: Q01DX009 (ip), vehicle: Klucel (hydroxypropylcellulose) (HPC)): 102 % of control | T/C (dose: 18.0 mg/kg/injection, schedule: Q01DX009 (ip), vehicle: Klucel (hydroxypropylcellulose) (HPC)): 95 % of control | T/C (dose: 36.0 mg/kg/injection, schedule: Q01DX009 (ip), vehicle: Klucel (hydroxypropylcellulose) (HPC)): 99 % of control | T/C (dose: 72.0 mg/kg/injection, schedule: Q01DX009 (ip), vehicle: Klucel (hydroxypropylcellulose) (HPC)): 99 % of control

Clc1nc(Cl)nc(-c2cccn2-c2ccccc2)n1
T/C (dose: 25.0 mg/kg/injection, schedule: Q01DX009 (ip), vehicle: Klucel (hydroxypropylcellulose) (HPC)): 100 % of control | T/C (dose: 50.0 mg/kg/injection, schedule: Q01DX009 (ip), vehicle: Klucel (hydroxypropylcellulose) (HPC)): 100 % of control | T/C [8]: 104 % of control | T/C (dose: 150.0 mg/kg/injection, schedule: Q01DX009 (ip), vehicle: Klucel (hydroxypropylcellulose) (HPC)): 105 % of control | T/C (dose: 225.0 mg/kg/injection, schedule: Q01DX009 (ip), vehicle: Klucel (hydroxypropylcellulose) (HPC)): 95 % of control

CC(C)(C)CSc1ccccc1SCC(C)(C)C
T/C (dose: 50.0 mg/kg/injection, schedule: Q04DX002 (ip), vehicle: saline with Tween-80): 107 % of control | T/C [9]: 98 % of control | T/C [10]: 93 % of control

O=C(O)c1ccccc1C(=O)NNC(=O)c1ccccc1C(=O)O
T/C [11]: 100 % of control | T/C [12]: 90 % of control | T/C [13]: 95 % of control | T/C (dose: 200.0 mg/kg/injection, schedule: Q04DX003 (ip), vehicle: saline with Tween-80): 113 % of control | T/C [14]: 90 % of control | T/C (dose: 400.0 mg/kg/injection, schedule: Q04DX003 (ip), vehicle: saline with Tween-80): 109 % of control

C=C(C(=O)OC1CC2CCC(C1)N2C)c1ccccc1 (centres undefined)
T/C (dose: 1.25 mg/kg/injection, schedule: Q01DX009 (ip), vehicle: saline): 100 % of control | T/C (dose: 2.5 mg/kg/injection, schedule: Q01DX009 (ip), vehicle: saline): 100 % of control | T/C (dose: 5.0 mg/kg/injection, schedule: Q01DX009 (ip), vehicle: saline): 100 % of control | T/C (dose: 10.0 mg/kg/injection, schedule: Q01DX009 (ip), vehicle: saline): 90 % of control

CCS(=O)(=O)c1ncc2cnccn12
T/C (dose: 100.0 mg/kg/injection, schedule: Q01DX009 (ip), vehicle: water): 92 % of control | T/C (dose: 100.0 mg/kg/injection, schedule: Q04DX003 (ip), vehicle: water): 95 % of control | T/C (dose: 200.0 mg/kg/injection, schedule: Q01DX009 (ip), vehicle: water): 105 % of control | T/C (dose: 200.0 mg/kg/injection, schedule: Q04DX003 (ip), vehicle: water): 91 % of control | T/C (dose: 400.0 mg/kg/injection, schedule: Q01DX009 (ip), vehicle: water): 100 % of control

Cn1c(-c2ccccc2)c2c(c1-c1ccccc1)CCCC2
T/C [9]: 88 % of control | T/C [10]: 87 % of control

Clc1nc2nc[nH]c2nc1Cl
T/C (dose: 12.5 mg/kg/injection, schedule: Q04DX003 (ip), vehicle: saline with Tween-80): 100 % of control | T/C [1]: 170 % of control | T/C [15]: 100 % of control | T/C [2]: 95 % of control | T/C [16]: 90 % of control | T/C [12]: 95 % of control

c1ccc2c(c1)NC1(CCCCC1)S2
T/C [8]: 104 % of control | T/C [5]: 95 % of control | T/C (dose: 200.0 mg/kg/injection, schedule: Q01DX009 (ip), vehicle: Klucel (hydroxypropylcellulose) (HPC)): 104 % of control | T/C [6]: 105 % of control | T/C (dose: 400.0 mg/kg/injection, schedule: Q01DX009 (ip), vehicle: Klucel (hydroxypropylcellulose) (HPC)): 109 % of control | T/C [7]: 105 % of control

Nc1cc(=O)n(-c2ccccc2)[nH]1
T/C [2]: 105 % of control | T/C [11]: 102 % of control | T/C [13]: 109 % of control

Cc1cccc(OS(=O)(=O)c2ccccc2[N+](=O)[O-])c1
T/C (dose: 100.0 mg/kg/injection, schedule: Q01DX001 (ip), vehicle: saline sonified): 100 % of control | T/C (dose: 200.0 mg/kg/injection, schedule: Q01DX001 (ip), vehicle: saline sonified): 110 % of control | T/C (dose: 400.0 mg/kg/injection, schedule: Q01DX001 (ip), vehicle: saline sonified): 100 % of control

CC1(C)CC(=O)C=C(NC2CCCCC2)C1
T/C (dose: 50.0 mg/kg/injection, schedule: Q04DX003 (ip), vehicle: saline sonified): 90 % of control | T/C (dose: 100.0 mg/kg/injection, schedule: Q04DX003 (ip), vehicle: saline sonified): 109 % of control | T/C (dose: 200.0 mg/kg/injection, schedule: Q04DX003 (ip), vehicle: saline sonified): 100 % of control

CCCCCCOc1ccc(OCCCC[N+]2(CC)CCCCC2)cc1
T/C (dose: 6.25 mg/kg/injection, schedule: Q01DX009 (ip), vehicle: saline): 103 % of control | T/C (dose: 12.5 mg/kg/injection, schedule: Q01DX009 (ip), vehicle: saline): 110 % of control

CN(C)CCC(O)c1c[nH]c2ccccc12 (centres undefined)
T/C [11]: 99 % of control | T/C [13]: 97 % of control | T/C [14]: 90 % of control

COc1ccc(NC(=S)NN)cc1
T/C [15]: 100 % of control | T/C [16]: 100 % of control | T/C (dose: 66.0 mg/kg/injection, schedule: Q04DX003 (ip), vehicle: saline with Tween-80): 100 % of control | T/C [12]: 100 % of control | T/C (dose: 150.0 mg/kg/injection, schedule: Q04DX003 (ip), vehicle: saline with Tween-80): 90 % of control

O=C(/C=C/c1ccc(OCc2ccccc2)cc1)c1cccc(Br)c1
T/C [2]: 89 % of control | T/C [11]: 100 % of control | T/C [13]: 91 % of control

O=C(CCNOCc1ccccc1)OCc1ccccc1
T/C (dose: 12.5 mg/kg/injection, schedule: Q01DX009 (ip), vehicle: other): 101 % of control | T/C (dose: 25.0 mg/kg/injection, schedule: Q01DX009 (ip), vehicle: other): 100 % of control | T/C [3]: 101 % of control | T/C [4]: 89 % of control
